Laboratory results from US10695330B2, “Methods of treatment” (Global Blood Therapeutics, Inc., priority 2015, dated 2020).

What was measured:
Hb [1] = target: T1, Hb (Mus musculus, UniProt P01942); experiment: LPS-induced acute lung injury mouse model: PK/PD (Hb occupancy, hemoximetry); type: in vivo; settings: LPS-induced ALI mice
T1 construct: from tissue; host or cells: whole blood (red blood cells) of dosed C57BL / C57BL/6J mice
Protocol: Adult, 8-10-week-old male C57BL/6J mice (Jackson Laboratory, Bar Harbor, Me.), were anesthetized with isoflurane, injected with 100 μg LPS (Sigma, St. Louis, Mo.) in 100 μL PBS by direct intratracheal injection. After 24 hours, mice were given Compound 1 (70 or 140 mg/kg formulated in dimethylacetamide, polyethylene glycol 400 (PEG400) and 40% cavitron in a ratio of 1:5:4, respectively) or vehicle only (5 μL/g) by oral gavage 2 hours prior to placement in a hypoxia chamber. Mice were exposed to either 10 or 5% O2 for 4 hours. Oxygen saturation (SaO2) was measured with a pulse oximeter (STARR Life Sciences, Oakmont, Pa.) at baseline and hourly during hypoxic exposure. During hypoxic exposure, mice were monitored continuously and a moribund check was done every 15 minutes. Time to death was assessed by time to moribund status. Mice were determined to be moribund if they could not right themselves when placed in a supine position.
Blood was collected by cardiac puncture in the hypoxic chamber. Blood gases were measured using the i-STAT portable analyzer within the hypoxic environment (Abaxis, Union City, Calif.). Remaining blood samples were used for hemoximetry and pharmacokinetic analysis. For sample collection, mice were euthanized with pentobarbital overdose. A bronchoaleveolar lavage (BAL) was performed with 900 uL Saline. Blood was collected by retro orbital puncture, and then spun to collect plasma. Lungs were removed and flash frozen. All samples were stored at −80° C. until further study. BAL inflammatory cell counts and differentials were determined manually after staining cytospins with DiffQuik. BAL protein was measured using a Pierce BCA Protein Assay Kit (Thermo Scientific, Waltham, Mass.).
Hemoximetry was used to determine the PD effect of Compound 1 in whole blood from dosed mice as described above. Representative oxygen equilibrium curves (OECs) of whole blood obtained from mice dosed with Compound 1 (blue and red lines) or vehicle only (black line) are shown in FIG. 3A.

Hb [2] = target: T1, Hb; experiment: Bleomycin mouse model: PK/PD (blood and plasma concentrations, Hb occupancy, hemoximetry); type: in vivo; settings: bleomycin treated mice; for calculated Hb occupancy: 4 hours after last dose
Protocol: Compound 1 (formulated in dimethylacetamide: polyethylene glycol 400 (PEG400): 40% cavitron at a 1:5:4 ratio) was administered at either low dose (first day 50 mg/kg followed by 40 mg/kg daily) or high dose (first day 150 mg/kg followed by 85 mg/kg daily) via oral gavage to bleomycin treated mice once daily from day 8 to day 15. Animals in group 1 were administered vehicle via oral gavage. The dosing volume was 200 μL. The study animals were sacrificed on day 15 at 4 hours post final dose.
Samples for hemoximetry and pharmacokinetics (PK) were taken 4 hours following the last dose of the dosing regimen. BAL fluid was collected from the lungs of the animals by lavaging the lung with 1 ml Hanks balanced salt media (HBSS). Lungs were harvested from each animal and weighed. They were then inflated by ˜0.5 mL of 10% NBF and fixed in a formalin container for subsequent histopathological analysis.
Compound 1 blood and plasma concentrations were determined by LC-MS 4 hours after the last dose. Both standard and QC blood samples were pre-incubated at 37° C. for 1 hr. After incubation, all standard and QC samples were diluted with 2-fold volume of water to match with the condition of samples. Plasma standard and QC were proceeding without pre-incubation. […] The peak area of m/z 341->203 product ion (Compound 1) was measured against that of the m/z 345->159 product ion 2-hydroxy-6-((2-(1-(propan-2-yl-d7)-1H-pyrazol-5-yl)pyridin-3-yl)methoxy)benzaldehyde in positive ion mode. […]
Hemoglobin occupancy by Compound 1 was calculated by dividing the concentration of Compound 1 in RBCs by the Hb concentration in RBCs (5 mM). RBC was calculated from whole blood and plasma concentration data using the following equation: […]
Hemoximetry measurements (PD analysis) were conducted in a Hemox Analyzer (TCS Scientific Corporation, New Hope, Pa.). […] The absorbance at wavelengths that correspond to the isosbestic point (570 nm) and deoxy Hb (560 nm) was recorded as a function of the sample O2 tension (pO2). […]

T1 sequence (P01942 2-142 limits assumed): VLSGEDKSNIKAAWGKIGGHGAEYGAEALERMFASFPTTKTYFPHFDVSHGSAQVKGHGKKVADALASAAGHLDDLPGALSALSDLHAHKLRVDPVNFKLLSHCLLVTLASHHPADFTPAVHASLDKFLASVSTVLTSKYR
T1 sequence (P02088 2-147 partner limits assumed): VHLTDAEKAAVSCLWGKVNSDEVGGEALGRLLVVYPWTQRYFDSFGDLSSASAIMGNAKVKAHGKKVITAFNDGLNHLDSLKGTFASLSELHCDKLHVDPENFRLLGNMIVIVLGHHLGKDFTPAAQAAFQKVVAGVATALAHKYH

## O=Cc1c(O)cccc1OC[C@@H]1CCCCN1C(=O)c1cccnc1 [Compound 1, (S)-2-hydroxy-6-((1-nicotinoylpiperidin-2-yl)methoxy)benzaldehyde]
Hb [1]; 70 mg/kg oral
  Hb occupancy: ~19%
Hb [1]; 140 mg/kg oral
  Hb occupancy: ~27%
Hb [1]; 70 or 140 mg/kg oral, vs vehicle
  Hb O2 affinity (left-shift in the OEC) in whole blood from dosed mice: dose-dependent increase in Hb O2 affinity relative to control
Hb [2]; high dose regimen (150 then 85 mg/kg daily)
  calculated Hb occupancy: 36.7%
Hb [2]; low and high dose
  shift in the OEC (Hb-oxygen binding affinity): significant left shift in the OEC in a dose-response manner
Hb [2]; low dose regimen (50 then 40 mg/kg daily)
  calculated Hb occupancy: 18.0%
